Experimental findings from patent publication US20210128702A1 (priority 2017, published 2021) are described below.

Common to all, as to format: cell-based
The test system of assay [1] is Non-MM, bone marrow cells (CD138−).
In the next assay the test system is 4 MM cell lines.
Assay [2] deals with MM.1S cells.
For assay [3], the system named is MM.1S cells. The source holds these as a separate data set.
Another assay deals with U266 cells.

For the molecule `CC(C)C[C@H](NC(=O)[C@H](Cc1ccccc1)NC(=O)c1cnccn1)B(O)O` [bortezomib], the polyUb proteins accumulation result in assay [1] is given as “only modest polyUb proteins accumulation”. In the assay with 4 MM cell lines, the “polyUb protein fluorescence (proteotoxicity)” value is listed as “increased fluorescence in all cell lines”.

`C[C@@H]1C[C@@H]([C@H](O)CC2CC(=O)NC(=O)C2)C(=O)[C@@H](C)C1` [cycloheximide]: the “effect on bortezomib-induced apoptosis” value in the assay with MM.1S cells [2] is “decreased bortezomib-induced apoptosis”. In addition, in the assay on MM.1S cells [3], the “effect on polyUb” value is reported as “decreases polyUb”.

Consider tunicamycin, for which, in the assay on U266 cells, the “sensitization to Btz-induced apoptosis” value is “sensitizes U266 cells to Btz-induced apoptosis”.
